Legend:
Type in all cases: biochemical
Wild-type cruzipain = Wild-type cruzipain (Trypanosoma cruzi, UniProt P25779); assay: Trypanosoma cruzi cruzipain peptidase activity assay (Ki); settings: read-out: Ki, inhibitors of cruzain and cruzipains
In short: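 Native cruzipain from T. cruzi Dm28 epimastigotes, 2.5 nM, in 100 mM sodium phosphate pH 6.75 with 1 mM EDTA and 10 mM L-cysteine, 25 °C, DMSO <1%. Rates taken from continuous fluorogenic substrate read; Ki by regression assuming reversible pure-competitive inhibition.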

human cathepsin B = target: T1, human cathepsin B (Homo sapiens, UniProt P07858); assay: Cathepsin B peptidase activity assay (Ki); settings: read-out: Ki, inhibitors of cathepsin B
T1 construct: purchased CN Biosciences
Protocol: Unless otherwise stated, all general chemicals and biochemicals were purchased from either the Sigma Chemical Company, Poole, Dorset, U.K or from Fisher Scientific UK, Loughborough, Leicestershire, U.K. Absorbance assays were carried out in flat-bottomed 96-well plates (Spectra; Greiner Bio-One Ltd., Stonehouse, Gloucestershire, U.K.) using a SpectraMax PLUS384 plate reader (Molecular Devices, Crawley, U.K.). […] Fluorescence assays were monitored using a SpectraMax Gemini fluorescence plate reader (Molecular Devices). For substrates employing either a 7-amino-4-methylcoumarin (AMC) or a 7-amino-4-trifluoromethylcoumarin (AFC) fluorophore, assays were monitored at an excitation wavelength of 365 nm and an emission wavelength of 450 nm and the fluorescence plate reader calibrated with AMC. For substrates employing a 3-amino-benzoyl (Abz) fluorophore, assays were monitored at an excitation wavelength of 310 nm and an emission wavelength of 445 nm; the fluorescence plate reader calibrated with 3-amino-benzamide (Fluka). Unless otherwise indicated, all the peptidase substrates were purchased from Bachem UK, St Helens, Merseyside, UK. […] Hydroxyethylpiperazine ethanesulfonate (HEPES), tris-hydroxylmethyl aminomethane (tris) base, bis-tris-propane and all the biological detergents (e.g. CHAPS, zwittergents, etc.) were purchased from CN Biosciences UK, Beeston, Nottinghamshire, U.K. Glycerol was purchased from Amersham Pharmacia Biotech, Little Chalfont, Buckinghamshire, U.K. Stock solutions of substrate or inhibitor were made up to 10 mM in 100% dimethylsulfoxide (DMSO) (Rathburns, Glasgow, U.K.) and diluted as appropriately required. In all cases the DMSO concentration in the assays was maintained at less than 1% (vol./vol.).
Enzyme was added as required to initiate the reaction and the activity, as judged by the change in fluorescence upon conversion of substrate to product, was monitored over time. All assays were carried out at 25±1° C.
Bovine cathepsin S, human cathepsin L, human cathepsin H and human cathepsin B were obtained from CN Biosciences. Recombinant human cathepsin S, human cathepsin K and human cathepsin X were obtained from Dr. Boris Turk (Josef Stefan Institute, Ljubljana, Slovenia). Unless otherwise stated, all peptidase activity assays were carried out in 10 mM bis-tris-propane (BTP), pH 6.5 containing 1 mM EDTA, 5 mM 2-mercaptoethanol and 1 mM CaCl2.
The apparent inhibition constant (Ki) for each compound was determined on the basis that inhibition was reversible and occurred by a pure-competitive mechanism. […] [formula]
[formula] Ki^app=Ki(1+[So]/KM^app) (4)
Curves were fitted by non-linear regression analysis (Prism) using a fixed value for the enzyme concentration.

CPB2.8ΔCTE = target: T2, CPB2.8ΔCTE (Leishmania mexicana, UniProt P36400); assay: Leishmania mexicana cysteine protease B (CPB) peptidase activity assay (Ki); settings: Ki, inhibitors of Leismania mexicana CPB protease
T2 construct: Wild-type recombinant CPB without the C-terminal extention (i.e. CPB2.8ΔCTE); Dr. Jeremy Mottram (Wellcome Centre for Molecular Parasitology, University of Glasgow)
In short: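 Apparent Ki was derived by regression of activity against inhibitor concentration, assuming pure-competitive reversible binding. Reaction: 0.25 nM CPB lacking the C-terminal extension, pH 5.5 acetate buffer (1 mM EDTA, 200 mM NaCl, 10 mM DTT), 25 °C, followed by continuous substrate fluorescence.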

T2 sequence (P36400 126-343, stated change not applied): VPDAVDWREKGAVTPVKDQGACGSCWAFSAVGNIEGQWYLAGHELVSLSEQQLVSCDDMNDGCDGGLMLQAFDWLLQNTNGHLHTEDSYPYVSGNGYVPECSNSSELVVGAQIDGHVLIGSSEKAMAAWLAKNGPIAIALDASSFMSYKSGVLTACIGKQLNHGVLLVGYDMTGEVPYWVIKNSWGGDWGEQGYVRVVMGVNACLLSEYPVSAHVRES
Wild-type cruzipain, sequence (P25779 whole entry): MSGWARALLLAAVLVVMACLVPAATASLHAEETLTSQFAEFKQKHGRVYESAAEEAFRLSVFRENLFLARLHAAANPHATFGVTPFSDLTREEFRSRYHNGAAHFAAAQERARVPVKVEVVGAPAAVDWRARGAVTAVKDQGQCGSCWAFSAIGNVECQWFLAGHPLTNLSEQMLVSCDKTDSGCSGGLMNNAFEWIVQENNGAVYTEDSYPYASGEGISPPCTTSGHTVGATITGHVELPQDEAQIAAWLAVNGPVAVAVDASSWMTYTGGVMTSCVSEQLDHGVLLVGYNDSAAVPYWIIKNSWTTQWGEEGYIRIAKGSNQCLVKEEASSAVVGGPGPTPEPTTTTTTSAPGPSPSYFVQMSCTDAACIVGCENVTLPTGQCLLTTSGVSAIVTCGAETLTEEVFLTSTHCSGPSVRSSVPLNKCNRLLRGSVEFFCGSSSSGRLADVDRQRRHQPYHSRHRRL

Work on `CC(C)C[C@H](NC(=O)c1ccc(C(C)(C)C)cc1)C(=O)N1CC[C@@H]2[C@H]1C(=O)CN2C(=O)c1csc(-c2ccccc2)n1` [Example 27, (3aR,6aS)-4-tert-Butyl-N-{(1S)-3-methyl-1-[6-oxo-4-(2-phenyl-thiazole-4-carbonyl)-hexahydro-pyrrolo[3,2-b]pyrrole-1-carbonyl]-butyl}-benzamide] yielded a Ki (Wild-type cruzipain) of under 5 µM, a Ki (human cathepsin B) of under 5 µM and a Ki (CPB2.8ΔCTE) of under 5 µM.

`CC(C)C[C@H](NC(=O)c1ccc(C(C)(C)C)cc1)C(=O)N1CC[C@@H]2[C@H]1C(=O)CN2C(=O)c1ccc2ccccc2c1` [Example 34, (3aR,6aS)-4-tert-Butyl-N-{(1S)-3-methyl-1-[4-(naphthalene-2-carbonyl)-6-oxo-hexahydro-pyrrolo[3,2-b]pyrrole-1-carbonyl]-butyl}-benzamide] gave a Ki (Wild-type cruzipain) of under 5 µM, a Ki (human cathepsin B) of under 5 µM and a Ki (CPB2.8ΔCTE) of under 5 µM.

With `Cc1cccc(C(=O)N2CC(=O)[C@@H]3[C@H]2CCN3C(=O)[C@H](CC(C)C)NC(=O)c2ccc(N(C)C)cc2)c1` [Example 54, (3aR,6aS)-4-Dimethylamino-N-{(1S)-3-methyl-1-[4-(3-methyl-benzoyl)-6-oxo-hexahydro-pyrrolo[3,2-b]pyrrole-1-carbonyl]-butyl}-benzamide] the Ki (Wild-type cruzipain) was under 5 µM and the Ki (human cathepsin B) was under 5 µM.

With `CC(C)C[C@H](NC(=O)c1ccc(N(C)C)cc1)C(=O)N1CC[C@@H]2[C@H]1C(=O)CN2C(=O)c1ccc(F)cc1` [Example 57, (3aR,6aS)-4-Dimethylamino-N-{(1S)-1-[4-(4-fluoro-benzoyl)-6-oxo-hexahydro-pyrrolo[3,2-b]pyrrole-1-carbonyl]-3-methyl-butyl}-benzamide] the Ki (human cathepsin B) was under 5 µM and the Ki (CPB2.8ΔCTE) was under 5 µM.

For `CC(C)C[C@H](NC(=O)c1ccc([N+](=O)[O-])cc1)C(=O)N1CC[C@@H]2[C@H]1C(=O)CN2C(=O)c1cccc(S(C)(=O)=O)c1` [Example 58, (3aR,6aS)-N-{(1S)-1-[4-(3-Methanesulfonyl-benzoyl)-6-oxo-hexahydro-pyrrolo[3,2-b]pyrrole-1-carbonyl]-3-methyl-butyl}-4-nitro-benzamide], the Ki (Wild-type cruzipain) was under 5 µM and the Ki (human cathepsin B) was under 5 µM.

For `O=C(N[C@@H](CSCc1ccccc1)C(=O)N1CC[C@@H]2[C@H]1C(=O)CN2C(=O)C12CC3CC(CC1C3)C2)c1ccsc1` [Example 266, (3aR,6aS)-Thiophene-3-carboxylic acid {(1R)-1-benzylsulfanylmethyl-2-[4-(hexahydro-2,5-methano-pentalene-3a-carbonyl)-6-oxo-hexahydro-pyrrolo[3,2-b]pyrrole-1-yl]-2-oxo-ethyl}-amide], the Ki (human cathepsin B) was under 5 µM.

Work on `O=C(N[C@@H](CSCc1ccccc1)C(=O)N1CC[C@@H]2[C@H]1C(=O)CN2C(=O)c1ccc(O)cc1)c1ccsc1` [Example 267, (3aR,6aS)-Thiophene-3-carboxylic acid {(1R)-1-benzylsulfanylmethyl-2-[4-(4-hydroxy-benzoyl)-6-oxo-hexahydro-pyrrolo[3,2-b]pyrrol-1-yl]-2-oxo-ethyl}-amide] yielded a Ki (human cathepsin B) of under 5 µM.

`CS(=O)(=O)c1ccccc1C(=O)N1CC(=O)[C@@H]2[C@H]1CCN2C(=O)[C@H](CC1CCCCC1)NC(=O)C(c1ccccc1)c1ccccc1` [Example 279, (3aR,6aS)-N-{(1S)-1-Cyclohexylmethyl-2-[4-(2-methanesulfonyl-benzoyl)-6-oxo-hexahydro-pyrrolo[3,2-b]pyrrole-1-yl]-2-oxo-ethyl}-2,2-diphenyl-acetamide] showed a Ki (human cathepsin B) of under 5 µM.

In the case of `O=C(N[C@@H](Cc1ccc(O)cc1)C(=O)N1CC[C@@H]2[C@H]1C(=O)CN2C(=O)c1ccccc1)c1nccc2ccccc12` [Example 299, (3aR,6aS)-Isoquinoline-1-carboxylic acid [(1S)-2-(4-benzoyl-6-oxo-hexahydro-pyrrolo[3,2-b]pyrrol-1-yl)-1-(4-hydroxy-benzyl)-2-oxo-ethyl]-amide], the Ki (Wild-type cruzipain) is reported as under 5 µM and the Ki (human cathepsin B) is reported as under 5 µM.

With `O=C(N[C@@H](Cc1ccc(O)cc1)C(=O)N1CC[C@@H]2[C@H]1C(=O)CN2C(=O)c1ccccc1)c1cc2ccccc2s1` [Example 300, (3aR,6aS)-Benzo[b]thiophene-2-carboxylic acid [(1S)-2-(4-benzoyl-6-oxo-hexahydro-pyrrolo[3,2-b]pyrrole-1-yl)-1-(4-hydroxy-benzyl)-2-oxo-ethyl]-amide] the Ki (Wild-type cruzipain) was under 5 µM and the Ki (human cathepsin B) was under 5 µM.

In the case of `O=C(N[C@@H](Cc1ccc(O)cc1)C(=O)N1CC[C@@H]2[C@H]1C(=O)CN2C(=O)c1cccc2ccccc12)c1cccc2ccccc12` [Example 301, (3aR,6aS)-Naphthalene-1-carboxylic acid {(1S)-1-(4-hydroxy-benzyl)-2-[4-(naphthalene-1-carbonyl)-6-oxo-hexahydro-pyrrolo[3,2-b]pyrrol-1-yl]-2-oxo-ethyl}-amide], the Ki (Wild-type cruzipain) is reported as under 5 µM and the Ki (human cathepsin B) is reported as under 5 µM.

For `CS(=O)(=O)c1cccc(C(=O)N2CC(=O)[C@@H]3[C@H]2CCN3C(=O)[C@H](Cc2ccc(O)cc2)NC(=O)c2cccc(Br)c2)c1` [Example 304, (3aR,6aS)-3-Bromo-N-{(1S)-1-(4-hydroxy-benzyl)-2-[4-(3-methanesulfonyl-benzoyl)-6-oxo-hexahydro-pyrrolo[3,2-b]pyrrole-1-yl]-2-oxo-ethyl}-benzamide], the Ki (Wild-type cruzipain) was under 5 µM and the Ki (human cathepsin B) was under 5 µM.

Molecule `O=C(N[C@@H](Cc1ccc(O)cc1)C(=O)N1CC[C@@H]2[C@H]1C(=O)CN2C(=O)c1cccc([N+](=O)[O-])c1)c1cccc(Br)c1` [Example 305, (3aR,6aS)-3-Bromo-N-{(1S)-1-(4-hydroxy-benzyl)-2-[4-(3-nitro-benzoyl)-6-oxo-hexahydro-pyrrolo[3,2-b]pyrrole-1-yl]-2-oxo-ethyl}-benzamide] has a Ki (Wild-type cruzipain) of under 5 µM and a Ki (human cathepsin B) of under 5 µM.

`O=C(N[C@@H](Cc1ccc(O)cc1)C(=O)N1CC[C@@H]2[C@H]1C(=O)CN2C(=O)C12CC3CC(CC(C3)C1)C2)c1cccc(Br)c1` [Example 307, (3aR,6aS)-N-[(1S)-2-[4-(Adamantane-1-carbonyl)-6-oxo-hexa hydro-pyrrolo[3,2-b]pyrrole-1-yl)-1-(4-hydroxy-benzyl)-2-oxo-ethyl]-3-bromo-benzamide] showed a Ki (Wild-type cruzipain) of under 5 µM and a Ki (human cathepsin B) of under 5 µM.

For `O=C(N[C@@H](Cc1ccc(O)cc1)C(=O)N1CC[C@@H]2[C@H]1C(=O)CN2C(=O)C12CC3CC(CC1C3)C2)c1cccc(Br)c1` [Example 308, (3aR,6aS)-3-Bromo-N-[(1S)-2-[4-(hexahydro-2,5-methano-pentalene-3a-carbonyl)-6-oxo-hexahydro-pyrrolo[3,2-b]pyrrole-1-yl]-1-(4-hydroxy-benzyl)-2-oxo-ethyl]-benzamide], the Ki (Wild-type cruzipain) was under 5 µM and the Ki (human cathepsin B) was under 5 µM.

`O=C(N[C@@H](Cc1ccc(O)cc1)C(=O)N1CC[C@@H]2[C@H]1C(=O)CN2C(=O)c1ccc(O)cc1)c1cccc(Br)c1` [Example 309, (3aR,6aS)-3-Bromo-N-[(1S)-2-[4-(4-hydroxy-benzoyl)-6-oxo-hexa hydro-pyrrolo[3,2-b]pyrrole-1-yl]-1-(4-hydroxy-benzyl)-2-oxo-ethyl]-benzamide] showed a Ki (Wild-type cruzipain) of under 5 µM and a Ki (human cathepsin B) of under 5 µM.

`O=C(N[C@@H](Cc1ccc(O)cc1)C(=O)N1CC[C@@H]2[C@H]1C(=O)CN2C(=O)C1CCCCC1)c1cccc(Br)c1` [Example 325, (3aR,6aS)-3-Bromo-N-[(1S)-2-(4-cyclohexanecarbonyl-6-oxo-hexahydro-pyrrolo[3,2-b]pyrrole-1-yl)-1-(4-hydroxy-benzyl)-2-oxo-ethyl]-benzamide] was tested, and the Ki (Wild-type cruzipain) was under 5 µM and the Ki (human cathepsin B) was under 5 µM.

`Cc1cccc(C(=O)N2CC(=O)[C@@H]3[C@H]2CCN3C(=O)[C@H](Cc2ccc(O)cc2)NC(=O)c2cccc(Br)c2)c1` [Example 327, (3aR,6aS)-3-Bromo-N-{(1S)-1-(4-hydroxy-benzyl)-2-[4-(3-methyl-benzoyl)-6-oxo-hexahydro-pyrrolo[3,2-b]pyrrol-1-yl]-2-oxo-ethyl}-benzamide] was tested, and the Ki (Wild-type cruzipain) was under 5 µM and the Ki (human cathepsin B) was under 5 µM.

— patent US20060100431A1, “Biologically active compounds” (Amura Therapeutics Limited, priority 2002, published 2006)
